In US20260206755A1, “COMPOUNDS AND COMPOSITIONS HAVING KNOCK-DOWN OR BLOOD FEED INHIBITION ACTIVITY AGAINST INSECT PESTS” (priority 2017, published 2026):
Like-named read-outs stand apart in the source and are kept apart here.

Test system: Anopheles stephensi
Assay: Anopheles stephensi treated well plate contact test: knockdown and mortality
Type: in vivo
How it was run: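 Well surfaces coated with ethanol solution of compound at a defined concentration, alone or with 2 ppm TFNA-AM, then dried. Five non-blood-fed 2–5-day-old adult females per well, fed 10% sucrose; knockdown scored at 1 hour, mortality at 24 and 48 hours, replicate means reported.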

[1] = test compound 0.2 ppm plus 2 ppm TFNA-AM, after 24 hours
[2] = test compound 0.2 ppm plus 2 ppm TFNA-AM, after 48 hours
[3] = test compound 0.2 ppm plus 2 ppm TFNA-AM, knockdown after 1 hour
[4] = test compound 0.2 ppm, without TFNA-AM, after 24 hours
[5] = test compound 0.2 ppm, without TFNA-AM, after 48 hours
[6] = test compound 0.2 ppm, without TFNA-AM, knockdown after 1 hour
[7] = test compound 2 ppm plus 2 ppm TFNA-AM, after 24 hours
[8] = test compound 2 ppm plus 2 ppm TFNA-AM, after 48 hours
[9] = test compound 2 ppm plus 2 ppm TFNA-AM, knockdown after 1 hour
[10] = test compound 2 ppm, without TFNA-AM, after 24 hours
[11] = test compound 2 ppm, without TFNA-AM, after 48 hours
[12] = test compound 2 ppm, without TFNA-AM, knockdown after 1 hour
[13] = test compound 20 ppm plus 2 ppm TFNA-AM, after 24 hours
[14] = test compound 20 ppm plus 2 ppm TFNA-AM, after 48 hours
[15] = test compound 20 ppm plus 2 ppm TFNA-AM, knockdown after 1 hour
[16] = test compound 20 ppm, without TFNA-AM, after 24 hours
[17] = test compound 20 ppm, without TFNA-AM, after 48 hours
[18] = test compound 20 ppm, without TFNA-AM, knockdown after 1 hour
[19] = test compound 200 ppm plus 2 ppm TFNA-AM, after 24 hours
[20] = test compound 200 ppm plus 2 ppm TFNA-AM, after 48 hours
[21] = test compound 200 ppm plus 2 ppm TFNA-AM, knockdown after 1 hour
[22] = test compound 200 ppm, without TFNA-AM, after 24 hours
[23] = test compound 200 ppm, without TFNA-AM, after 48 hours
[24] = test compound 200 ppm, without TFNA-AM, knockdown after 1 hour, adult females
[25] = Anopheles stephensi, test compound 0.2 ppm, without TFNA-AM, after 24 hours, read-out: mortality % 24, without TFNA-AM
[26] = Anopheles stephensi, test compound 0.2 ppm, without TFNA-AM, after 48 hours, read-out: mortality % 48, without TFNA-AM
[27] = Anopheles stephensi, test compound 0.2 ppm, without TFNA-AM, knockdown after 1 hour, read-out: Knock Down, without TFNA-AM
[28] = Anopheles stephensi, test compound 2 ppm, without TFNA-AM, after 24 hours, read-out: mortality % 24, without TFNA-AM
[29] = Anopheles stephensi, test compound 2 ppm, without TFNA-AM, after 48 hours, read-out: mortality % 48, without TFNA-AM
[30] = Anopheles stephensi, test compound 2 ppm, without TFNA-AM, knockdown after 1 hour, read-out: Knock Down, without TFNA-AM
[31] = Anopheles stephensi, test compound 20 ppm, without TFNA-AM, after 24 hours, read-out: mortality % 24, without TFNA-AM
[32] = Anopheles stephensi, test compound 20 ppm, without TFNA-AM, after 48 hours, read-out: mortality % 48, without TFNA-AM
[33] = Anopheles stephensi, test compound 20 ppm, without TFNA-AM, knockdown after 1 hour, read-out: Knock Down, without TFNA-AM
[34] = Anopheles stephensi, test compound 200 ppm, without TFNA-AM, after 24 hours, read-out: mortality % 24, without TFNA-AM
[35] = Anopheles stephensi, test compound 200 ppm, without TFNA-AM, after 48 hours, read-out: mortality % 48, without TFNA-AM
[36] = Anopheles stephensi, test compound 200 ppm, without TFNA-AM, knockdown after 1 hour, adult females, read-out: Knock Down, without TFNA-AM

| SMILES | mortality % 24, with TFNA-AM [1] | mortality % 48, with TFNA-AM [2] | Knock Down, with TFNA-AM [3] | mortality % 24, with TFNA-AM [7] | mortality % 48, with TFNA-AM [8] | Knock Down, with TFNA-AM [9] | mortality % 24, with TFNA-AM [13] | mortality % 48, with TFNA-AM [14] | Knock Down, with TFNA-AM [15] | mortality % 24, with TFNA-AM [19] | mortality % 48, with TFNA-AM [20] | Knock Down, with TFNA-AM [21] | mortality at 0.2 ppm [25] | mortality at 0.2 ppm [26] | pest or weed control at 0.2 ppm [27] | mortality at 2 ppm [28] | mortality at 2 ppm [29] | pest or weed control at 2 ppm [30] | mortality at 20 ppm [31] | mortality at 20 ppm [32] | also measured |
| --- | --- | --- | --- | --- | --- | --- | --- | --- | --- | --- | --- | --- | --- | --- | --- | --- | --- | --- | --- | --- | --- |
| O=c1c(-c2cccc(C(F)(F)F)c2)c([O-])[n+](Cc2cncnc2)c2ccccn12 [Triflumizopyrim] | 0% | 0% | 100% | 50% | 50% | 100% | 90% | 100% | 100% | 100% | 100% | 100% |  |  |  |  |  |  |  |  | mortality % 24, without TFNA-AM [4]: 0%; mortality % 48, without TFNA-AM [5]: 0%; Knock Down, without TFNA-AM [6]: 0%; mortality % 24, without TFNA-AM [10]: 0%; mortality % 48, without TFNA-AM [11]: 0%; Knock Down, without TFNA-AM [12]: 0%; mortality % 24, without TFNA-AM [16]: 0%; mortality % 48, without TFNA-AM [17]: 10%; Knock Down, without TFNA-AM [18]: 0%; mortality % 24, without TFNA-AM [22]: 40%; mortality % 48, without TFNA-AM [23]: 40%; Knock Down, without TFNA-AM [24]: 0% |
| O=[N+]([O-])c1cc(C(F)(F)F)c(Cl)c([N+](=O)[O-])c1Nc1ncc(C(F)(F)F)cc1Cl [Fluazinam] | 30% | 20% | 100% | 30% | 20% | 100% | 100% | 100% | 100% | 100% | 100% | 100% | 0% | 0% | 0% | 0% | 0% | 0% | 70% | 80% | pest or weed control at 20 ppm [33]: 20%; mortality at 200 ppm [34]: 90%; mortality at 200 ppm [35]: 90%; pest or weed control at 200 ppm [36]: 20% |
| CCOc1cc(C(C)(C)C)ccc1C1COC(c2c(F)cccc2F)=N1 (stereo not drawn) [Etoxazole] | 40% | 40% | 100% | 60% | 40% | 100% | 60% | 60% | 100% | 80% | 80% | 100% | 0% | 0% | 0% | 0% | 0% | 0% | 0% | 0% | pest or weed control at 20 ppm [33]: 0%; mortality at 200 ppm [34]: 0%; mortality at 200 ppm [35]: 0%; pest or weed control at 200 ppm [36]: 0% |
| N#Cc1ccc(CC(=NNC(=O)Nc2ccc(OC(F)(F)F)cc2)c2cccc(C(F)(F)F)c2)cc1 (mixture of isomers) [Metaflumizone] | 40% | 60% | 100% | 100% | 100% | 100% | 100% | 100% | 100% | 100% | 100% | 100% |  |  |  |  |  |  |  |  | mortality % 24, without TFNA-AM [4]: 0%; mortality % 48, without TFNA-AM [5]: 0%; Knock Down, without TFNA-AM [6]: 0%; mortality % 24, without TFNA-AM [10]: 0%; mortality % 48, without TFNA-AM [11]: 0%; Knock Down, without TFNA-AM [12]: 0%; mortality % 24, without TFNA-AM [16]: 0%; mortality % 48, without TFNA-AM [17]: 0%; Knock Down, without TFNA-AM [18]: 0%; mortality % 24, without TFNA-AM [22]: 0%; mortality % 48, without TFNA-AM [23]: 80%; Knock Down, without TFNA-AM [24]: 0% |
| OC(c1ccc(Cl)cc1)(c1ccc(Cl)cc1)C(Cl)(Cl)Cl [Dicofol] | 20% | 0% | 100% | 60% | 20% | 100% | 80% | 100% | 100% | 100% | 100% | 100% | 0% | 0% | 0% | 0% | 0% | 0% | 0% | 0% | pest or weed control at 20 ppm [33]: 0%; mortality at 200 ppm [34]: 0%; mortality at 200 ppm [35]: 0%; pest or weed control at 200 ppm [36]: 0% |
| N#Cc1nn(-c2c(Cl)cc(C(F)(F)F)cc2Cl)c(N)c1[S+]([O-])C(F)(F)F (stereo not drawn) [Fipronil] | 60% | 100% | 100% | 80% | 100% | 100% | 100% | 100% | 100% |  |  |  | 20% | 40% | 0% | 40% | 100% | 0% | 100% | 100% | mortality at 0.02 ppm (Anopheles stephensi, test compound 0.02 ppm, without TFNA-AM, after 24 hours, read-out: mortality % 24, without TFNA-AM): 0%; mortality at 0.02 ppm (Anopheles stephensi, test compound 0.02 ppm, without TFNA-AM, after 48 hours, read-out: mortality % 48, without TFNA-AM): 20%; pest or weed control at 0.02 ppm (Anopheles stephensi, test compound 0.02 ppm, without TFNA-AM, knockdown after 1 hour, read-out: Knock Down, without TFNA-AM): 0%; pest or weed control at 20 ppm [33]: 0%; mortality % 24, with TFNA-AM (test compound 0.02 ppm plus 2 ppm TFNA-AM, after 24 hours): 0%; mortality % 48, with TFNA-AM (test compound 0.02 ppm plus 2 ppm TFNA-AM, after 48 hours): 0%; Knock Down, with TFNA-AM (test compound 0.02 ppm plus 2 ppm TFNA-AM, knockdown after 1 hour): 100% |
| CCOC(=O)NCCOc1ccc(Oc2ccccc2)cc1 [Fenoxycarb] | 40% | 40% | 100% | 80% | 80% | 100% | 80% | 80% | 100% | 80% | 80% | 100% | 0% | 0% | 0% | 0% | 0% | 0% | 0% | 0% | pest or weed control at 20 ppm [33]: 20%; mortality at 200 ppm [34]: 0%; mortality at 200 ppm [35]: 0%; pest or weed control at 200 ppm [36]: 20% |
| Cc1ccc(/N=C/N(C)/C=N/c2ccc(C)cc2C)c(C)c1 [Amitraz] | 20% | 0% | 100% | 20% | 0% | 100% | 20% | 40% | 100% | 100% | 100% | 100% | 0% | 0% | 0% | 0% | 0% | 0% | 0% | 0% | pest or weed control at 20 ppm [33]: 0%; mortality at 200 ppm [34]: 0%; mortality at 200 ppm [35]: 0%; pest or weed control at 200 ppm [36]: 0% |
